The inhibition is the drop in the measured response relative to a control, in per cent.

Structures are written as SMILES.

The subject of one series is IL-1β. The series is described as follows: Inhibition of IL-1β production by LPS-stimulated monocytes. It counts as cell-based. The note with it: Homo sapiens, Monocyte, 18 h, read-out: % Inhibition of IL-1β produced by stimulated Monocytes with LPS @ 18 h. The method, then:
Briefly, human peripheral blood monocytes (HMs) were isolated from a leukocyte concentrate by density gradient centrifugation (Lymphoprep) and the isolated HMs cultured (2 h, 37° C.) to remove non-adherent cells. The adherent HMs wore cultured for 18 h (1×10^6 cells/well, 24-well plates)±endotoxin (LPS)±different compounds dissolved in DMSO (the final concentration of DMSO in the RPMI serum-free culture media with Pen./Strep. antibiotics was no greater than 0.5%). After incubation, the proinflammatory cytokines, TNFα, […], MCP-1 and IL-6 were measured in the conditioned media by ELISA and cytotoxicity was assessed by measuring the absorbance (490 nm) of formazan produced by reduction of MTS. The HMs alone±0.1-0.5% DMSO produced minimal levels of these pro-inflammatory cytokines. However, addition of 100 ng/ml or 10 μg/ml of LPS both dramatically stimulated cytokine production.

The subject of series [1] is PC-3 human prostate cancer cells. The series is described as follows: MMP-9 in conditioned media of PC-3 cells, gelatin zymography and Western blot. It counts as cell-based. The note with it: 10 μM and 20 μM, 48 hr, serum-free. Here is the method: Compound 1 was evaluated in a cell culture model of cancer. […] After the incubation, aliquots of the conditioned media were assayed for MMP-9 (gelatinase B) by either of two techniques, gelatin zymography (in the presence of 2 or 10 mMCa^++) and Western blot (both assays used purified MMP-9, 92 kDa gelatinase, as a standard).
(A western blot detects proteins with antibodies after separation by electrophoresis.)

Series [2] can be described thus: Type I diabetic rat model, 3-week oral treatment: blood glucose and hemoglobin A1c. The following applies: diabetic rats, 100 and 500 mg/kg oral daily, 3 weeks. It counts as in vivo. The method, then: At the end of the treatment protocol, the rats were sacrificed, blood samples were collected, and whole skin (except over limbs) and qingiva were dissected (the skin, because of ample quantities of tissue were analyzed for each rat separately; the gingiva, because of the tiny amounts that could be harvested per rat, were pooled for each experimental group, as prescribed previously for tetracycline studies (30). In addition, the jaw bones were collected, defleshed, and bone loss around the teeth analyzed morphometrically as described previously (42, 43).

The nature of series [3]: Type I diabetic rat model, 1-week oral treatment: glucose, adverse events, serum level. It counts as in vivo. The following applies: diabetic rats. From the text:
The purpose of the following was to establish an in vivo model of excessive collagen degradation to be used to test efficacy of the compounds of the subject invention. Male Sprague-Dawley rats (typically 300-400 gms of body weight), specific viral antibody free, were ordered from Charles River. Following general anesthesia via isoflurane anesthetic inhalation, diabetes was induced by an I.V. administration of streptozotocin (STZ) (50*mg/kg body weight) (Sigma Chemical Co., St Louis, Mo., USA) diluted in 0.9% citrated saline (pH 4.5), after 12 hours of fasting. After the streptozotocin injection, the animals were given free access to water and food. […] In this test, the test-paper color changes to dark brown which indicates glycosuria.
The latter assays were carried out using Western blot analysis with monoclonal antibodies to MMP-8.

The next series concerns caspase-3 activity. The series is described as follows: Doxorubicin mediated caspase-3 activity. It counts as cell-based, rat. The note with it: 10 μM, doxorubicin 500 nM, any time point. Here is the method: Neonatal rat ventricular myocytes, serum starved for 24 h, were treated with the inhibitors 1 h prior to the addition of 500 nM of doxorubicin (Sigma). At the indicated time points cells were washed with ice-cold phosphate buffered saline and lysed using RIPA buffer (Pierce) containing protease and phosphatase inhibitors (Sigma). Caspase-3 activity in the cell lysates was measured by incubation with 7-amino-4-trifluoromethyl coumarin (Enzo).

Regarding `COC(=O)C(C(=O)/C=C/c1ccc(O)c(OC)c1)C(=O)/C=C/c1ccc(O)c(OC)c1` [Compound 1, 1,7-Bis(4-hydroxy-3-methoxyphenyl)-4-methoxycarbonylhepta-1E,6E-dien-3,5-dione], the inhibition at 2 µM in the series on IL-1β (2 uM) came out at 41%. Moreover, the inhibition at 25 µM in the series with IL-1β (25 uM) came out at 100%. Also, the inhibition at 50 µM in the series with IL-1β (50 uM) came to 100%. For the same compound, the “MMP-9 production and/or activity in conditioned media” value in series [1] was “inhibited the production and/or activity of MMP-9”. Moreover, in series [2], the Blood glucose result was “no significant effect” and the “Hemoglobin A1c level” value is “no significant effect”. Moreover, in series [3] (100 mg/kg oral once/day, 7 days), the “Severity of hyperglycemia (serum glucose)” value is on record as “no effect on the severity of hyperglycemia”. In addition, in series [3] (n = 6, 1 week oral treatment), the “Description of AEs” value is reported as “Minor inflamed” and the “Incidence of Adverse Events (AEs)” value is 1/6. In series [3] (male, Sprague-Dawley, rat, serum, 100 mg/kg, 1 week oral treatment, FIG. 7), this compound came in with a concentration at 7 days of roughly 100 ng/mL. In addition, in the series with caspase-3 activity, the “Effect on doxorubicin mediated caspase-3 activity” value is recorded as “None of the MMP inhibitors, including compound 1, negatively modulate caspase-3 activity”.
